What was measured:
Format in all cases: cell-based
NCI-H1299 cells = assay: CCK-8 assay for cell proliferation and cytotoxicity, NCI-H1299; settings: Homo sapiens, CCK-8, 48 h
Protocol: (§1) Three types of lung cells were seeded into 96-well plate at a density of 5 × 10^3 cells per well at logarithmic growth phase and cultured in 37 °C. […] After that, cell viability was determined according to the instruction of the CCK-8 assay. Next, 10 μL of CCK-8 solution was added to each well of the plate and incubate the plate for 1–4 h in the incubator. The absorbance was measured at 450 nm using a microplate reader (Bio-Tek). The percentage of viable cells was measured using the following formula where three independent experiments were performed: [(A450 sample − A450blank)/(A450 control − A450blank)] × 100%.

A549 cells = assay: CCK-8 assay for cell proliferation and cytotoxicity, A549; settings: Homo sapiens, CCK-8, 48 h
Protocol: A549 cells were cultured in a humidified incubator at 37 °C with 5% CO2 in Ham’s F-12 K (PM150910, Procell) supplemented with 10% FBS and 1% Penicillin Streptomycin.
as §1

NCI-H1437 cells = assay: CCK-8 assay for cell proliferation and cytotoxicity, NCI-H1437; settings: Homo sapiens, CCK-8, 48 h, read-out: IC50 1437
Protocol: as §1

COc1cc2ncnc(Nc3cccc(-c4cn(Cc5ccc(Cl)cc5)nn4)c3)c2cc1OCCCN1CCOCC1 [Compound 7k]
IC50 (NCI-H1299 cells): 6.9 ± 0.23 µM | IC50 (A549 cells): 4.91 ± 0.52 µM | IC50 (NCI-H1437 cells): 2.9 ± 0.23 µM

COc1cc2ncnc(Nc3cccc(-c4cn(Cc5ccccc5C)nn4)c3)c2cc1OCCCN1CCOCC1 [Compound 7l]
IC50 (NCI-H1299 cells): 4.92 ± 0.49 µM | IC50 (A549 cells): 6.59 ± 0.2 µM | IC50 (NCI-H1437 cells): 0.84 ± 0.1 µM

COc1cc2ncnc(Nc3cccc(-c4cn(Cc5cc(C)cc(C)c5)nn4)c3)c2cc1OCCCN1CCOCC1 [Compound 7m]
IC50 (NCI-H1299 cells): 4.48 ± 0.41 µM | IC50 (A549 cells): 6.54 ± 0.21 µM | IC50 (NCI-H1437 cells): 3.72 ± 0.17 µM

COc1cc2ncnc(Nc3cccc(-c4cn(Cc5cc(F)ccc5C#N)nn4)c3)c2cc1OCCCN1CCOCC1 [Compound 7n]
IC50 (NCI-H1299 cells): 6.02 ± 0.24 µM | IC50 (A549 cells): 3.78 ± 0.03 µM | IC50 (NCI-H1437 cells): 4.67 ± 0.28 µM

COc1cc(Cn2cc(-c3cccc(Nc4ncnc5cc(OC)c(OCCCN6CCOCC6)cc45)c3)nn2)cc(OC)c1 [Compound 7o]
IC50 (NCI-H1299 cells): 6.78 ± 0.41 µM | IC50 (A549 cells): 12 ± 0.15 µM | IC50 (NCI-H1437 cells): 5.21 ± 0.13 µM

COc1cc2ncnc(Nc3cccc(-c4cn(Cc5cccc(I)c5)nn4)c3)c2cc1OCCCN1CCOCC1 [Compound 7p]
IC50 (NCI-H1299 cells): 5.04 ± 0.33 µM | IC50 (A549 cells): 8.5 ± 0.34 µM | IC50 (NCI-H1437 cells): 4.93 ± 0.14 µM

COc1cc2ncnc(Nc3cccc(-c4cn(-c5ccccc5F)nn4)c3)c2cc1OCCCN1CCOCC1 [Compound 7q]
IC50 (NCI-H1299 cells): 7.68 ± 0.11 µM | IC50 (A549 cells): 9.03 ± 0.15 µM | IC50 (NCI-H1437 cells): 7.21 ± 0.1 µM

COc1cccc(-n2cc(-c3cccc(Nc4ncnc5cc(OC)c(OCCCN6CCOCC6)cc45)c3)nn2)c1 [Compound 7r]
IC50 (NCI-H1299 cells): 9.35 ± 0.31 µM | IC50 (A549 cells): 12.9 ± 0.25 µM | IC50 (NCI-H1437 cells): 6.21 ± 0.23 µM

COc1cc2ncnc(Nc3cccc(-c4cn(-c5cccc([N+](=O)[O-])c5)nn4)c3)c2cc1OCCCN1CCOCC1 [Compound 7s]
IC50 (NCI-H1299 cells): 9.68 ± 0.21 µM | IC50 (A549 cells): 11 ± 0.25 µM | IC50 (NCI-H1437 cells): 8.21 ± 0.13 µM

COc1cc2ncnc(Nc3cccc(-c4cn(-c5ccc([N+](=O)[O-])cc5OC)nn4)c3)c2cc1OCCCN1CCOCC1 [Compound 7t]
IC50 (NCI-H1299 cells): 13 ± 0.23 µM | IC50 (A549 cells): 13.5 ± 0.33 µM | IC50 (NCI-H1437 cells): 14.93 ± 0.14 µM
